Experimental data taken from US11225505B2, “Antimicrobial polymyxin derivative compounds” (MONASH UNIVERSITY, priority 2015, dated 2022).
≈ marks a conversion by molar mass, not a printed value. Where a SMILES comes first, the peptide text is derived from it. Bridges are numbered along the chain shown (N, C = ends). [ ]: non-standard residue; d: D form. The star is where a group is joined. Isoxazole(3-CO,5-Ph) = O=C(c1cc(-c2ccccc2)on1)*; X64 = O=C(c1noc(-c2ccccc2)n1)*; X22 = Cn1c(C(=O)*)cc2ccccc21; X23 = O=C(c1cc2ccccc2[nH]1)*; X27 = O=C(c1sc2ccccc2c1Cl)*; X21 = O=C(c1cnc(Cl)cc1Cl)*; X39 = O=C(c1noc2ccccc12)*; X33 = O=C(c1cncc(Br)c1)*; X7 = O=C(c1nc2ccccc2o1)*; Dab = NCC[C@H](N)C(=O)O; Abu = CC[C@H](N)C(=O)O; Dap = NC[C@H](N)C(=O)O

Experiments:
Assay type in all cases: cell-based
[1] = system: Acinetobacter baumannii FADDI-AB030; assay: microbe, parasite or virus in culture; conditions: FADDI-AB030
Outline: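 Broth microdilution MIC in cation-adjusted Mueller-Hinton broth per CLSI M100-S24; lipopeptides tested as TFA salts. FADDI-AB030 is a multidrug-resistant clinical isolate. Polymyxin B sulphate served as control.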

[2] = system: Klebsiella pneumoniae FADDI-KP022; conditions: FADDI-KP022
Outline: (§1)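 Broth microdilution MIC per CLSI in cation-adjusted Mueller-Hinton broth, lipopeptides tested as TFA salts. Polymyxin B sulphate served as control.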

[3] = system: Klebsiella pneumoniae FADDI-KP032; conditions: FADDI-KP032
Outline: as §1

[4] = system: Pseudomonas aeruginosa FADDI-PA022; conditions: FADDI-PA022
Outline: as §1

[5] = system: Enterobacter cloacae FADDI-EC006; conditions: FADDI-EC006
Outline: as §1

[6] = system: Acinetobacter baumannii ATCC 17978; conditions: ATCC 17978
Outline: as §1

[7] = system: Enterobacter cloacae FADDI-EC001; conditions: FADDI-EC001
Outline: (§2)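 Standard CLSI (M100-S24) microdilution in cation-adjusted broth gives the MIC for each strain. Test compounds are TFA-salt lipopeptides; the comparator is polymyxin B sulphate.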

[8] = system: Klebsiella pneumoniae Kp BM1; conditions: Kp BM1
Outline: as §2

[9] = system: Acinetobacter baumannii FADDI-AB034; conditions: FADDI-AB034
Outline: as §1

[10] = system: Pseudomonas aeruginosa FADDI-PA038; conditions: FADDI-PA038
Outline: as §1

[11] = system: Pseudomonas aeruginosa ATCC 27853; conditions: ATCC 27853
Outline: as §1

[12] = system: Enterobacter cloacae FADDI-EC003; conditions: FADDI-EC003
Outline: as §1

[13] = system: Pseudomonas aeruginosa FADDI-PA01; conditions: FADDI-
Outline: as §1

| SMILES | Minimum inhibitory concentration [1] | Minimum inhibitory concentration [2] | Minimum inhibitory concentration [3] | Minimum inhibitory concentration [4] | Minimum inhibitory concentration [5] | Minimum inhibitory concentration [6] | Minimum inhibitory concentration [7] | Minimum inhibitory concentration [8] | Minimum inhibitory concentration [9] | Minimum inhibitory concentration [10] | Minimum inhibitory concentration [11] | Minimum inhibitory concentration [12] | Minimum inhibitory concentration [13] |
| --- | --- | --- | --- | --- | --- | --- | --- | --- | --- | --- | --- | --- | --- |
| CC[C@@H]1NC(=O)[C@@H](CC(C)C)NC(=O)[C@H](CCN)NC(=O)[C@@H](NC(=O)[C@H](CN)NC(=O)[C@@H](NC(=O)[C@H](CCN)NC(=O)c2cc(-c3ccccc3)on2)[C@@H](C)O)CCNC(=O)[C@H]([C@@H](C)O)NC(=O)[C@H](CCN)NC(=O)[C@H](CCN)NC1=O [Compound 80] ({Isoxazole(3-CO,5-Ph)}-[Dab]T[Dap][Dab][Dab][dL][Abu][Dab][Dab]T; lactam 4-C) | 0.5 µg/mL (≈ 0.432 µM) | <0.125 µg/mL | 0.25 µg/mL (≈ 0.216 µM) | 0.5 µg/mL (≈ 0.432 µM) | 0.25 µg/mL (≈ 0.216 µM) | 0.5 µg/mL (≈ 0.432 µM) | 0.25 µg/mL (≈ 0.216 µM) | 0.25 µg/mL (≈ 0.216 µM) | 0.5 µg/mL (≈ 0.432 µM) | 0.5 µg/mL (≈ 0.432 µM) | 0.5 µg/mL (≈ 0.432 µM) | 0.25 µg/mL (≈ 0.216 µM) | 0.5 µg/mL (≈ 0.432 µM) |
| CC[C@@H]1NC(=O)[C@@H](CC(C)C)NC(=O)[C@H](CCN)NC(=O)[C@@H](NC(=O)[C@H](CN)NC(=O)[C@@H](NC(=O)[C@H](CCN)NC(=O)c2cncc(Br)c2)[C@@H](C)O)CCNC(=O)[C@H]([C@@H](C)O)NC(=O)[C@H](CCN)NC(=O)[C@H](CCN)NC1=O [Compound 23] (X33-[Dab]T[Dap][Dab][Dab][dL][Abu][Dab][Dab]T; lactam 4-C) | 0.5 µg/mL (≈ 0.427 µM) | <0.125 µg/mL | 0.5 µg/mL (≈ 0.427 µM) | 0.25 µg/mL (≈ 0.213 µM) | 4 µg/mL (≈ 3.42 µM) | 2 µg/mL (≈ 1.71 µM) | 0.5 µg/mL (≈ 0.427 µM) | 0.25 µg/mL (≈ 0.213 µM) | 0.5 µg/mL (≈ 0.427 µM) | 0.5 µg/mL (≈ 0.427 µM) | 0.25 µg/mL (≈ 0.213 µM) | 0.5 µg/mL (≈ 0.427 µM) | 0.5 µg/mL (≈ 0.427 µM) |
| CC[C@@H]1NC(=O)[C@@H](CC(C)C)NC(=O)[C@H](CCN)NC(=O)[C@@H](NC(=O)[C@H](CN)NC(=O)[C@@H](NC(=O)[C@H](CCN)NC(=O)c2noc(-c3ccccc3)n2)[C@@H](C)O)CCNC(=O)[C@H]([C@@H](C)O)NC(=O)[C@H](CCN)NC(=O)[C@H](CCN)NC1=O [Compound 81] (X64-[Dab]T[Dap][Dab][Dab][dL][Abu][Dab][Dab]T; lactam 4-C) | 2 µg/mL (≈ 1.73 µM) | <0.125 µg/mL | 0.5 µg/mL (≈ 0.431 µM) | 0.5 µg/mL (≈ 0.431 µM) | 0.25 µg/mL (≈ 0.216 µM) | 2 µg/mL (≈ 1.73 µM) | <0.125 µg/mL | 0.5 µg/mL (≈ 0.431 µM) | 4 µg/mL (≈ 3.45 µM) | 1 µg/mL (≈ 0.863 µM) | 1 µg/mL (≈ 0.863 µM) | <0.125 µg/mL | 0.5 µg/mL (≈ 0.431 µM) |
| CC(C)C[C@H]1NC(=O)[C@H](CCN)NC(=O)[C@@H](NC(=O)[C@H](CN)NC(=O)[C@@H](NC(=O)[C@H](CCN)NC(=O)c2sc3ccccc3c2Cl)[C@@H](C)O)CCNC(=O)[C@H]([C@@H](C)O)NC(=O)[C@H](CCN)NC(=O)[C@H](CCN)NC(=O)[C@H](C)NC1=O [Compound 69] (X27-[Dab]T[Dap][Dab][Dab][dL]A[Dab][Dab]T; lactam 4-C) | 0.25 µg/mL (≈ 0.214 µM) | <0.125 µg/mL | 0.25 µg/mL (≈ 0.214 µM) | 0.5 µg/mL (≈ 0.428 µM) | 0.25 µg/mL (≈ 0.214 µM) | 0.25 µg/mL (≈ 0.214 µM) | 1 µg/mL (≈ 0.856 µM) | 0.25 µg/mL (≈ 0.214 µM) | 0.25 µg/mL (≈ 0.214 µM) | 2 µg/mL (≈ 1.71 µM) | 0.5 µg/mL (≈ 0.428 µM) | 0.25 µg/mL (≈ 0.214 µM) | 0.5 µg/mL (≈ 0.428 µM) |
| CC[C@@H]1NC(=O)[C@@H](CC(C)C)NC(=O)[C@H](CCN)NC(=O)[C@@H](NC(=O)[C@H](CN)NC(=O)[C@@H](NC(=O)[C@H](CCN)NC(=O)c2nc3ccccc3o2)[C@@H](C)O)CCNC(=O)[C@H]([C@@H](C)O)NC(=O)[C@H](CCN)NC(=O)[C@H](CCN)NC1=O [Compound 74] (X7-[Dab]T[Dap][Dab][Dab][dL][Abu][Dab][Dab]T; lactam 4-C) | 0.5 µg/mL (≈ 0.442 µM) | <0.125 µg/mL | 0.25 µg/mL (≈ 0.221 µM) | 0.25 µg/mL (≈ 0.221 µM) | 0.5 µg/mL (≈ 0.442 µM) | 1 µg/mL (≈ 0.883 µM) | <0.125 µg/mL | 0.25 µg/mL (≈ 0.221 µM) | 1 µg/mL (≈ 0.883 µM) | 0.5 µg/mL (≈ 0.442 µM) | 0.25 µg/mL (≈ 0.221 µM) | <0.125 µg/mL | 0.5 µg/mL (≈ 0.442 µM) |
| CC(C)C[C@H]1NC(=O)[C@H](CCN)NC(=O)[C@@H](NC(=O)[C@H](CN)NC(=O)[C@@H](NC(=O)[C@H](CCN)NC(=O)c2cc3ccccc3n2C)[C@@H](C)O)CCNC(=O)[C@H]([C@@H](C)O)NC(=O)[C@H](CCN)NC(=O)[C@H](CCN)NC(=O)[C@H]([C@@H](C)O)NC1=O [Compound 64] (X22-[Dab]T[Dap][Dab][Dab][dL]T[Dab][Dab]T; lactam 4-C) | 1 µg/mL (≈ 0.862 µM) | 0.25 µg/mL (≈ 0.215 µM) | 0.5 µg/mL (≈ 0.431 µM) | 0.25 µg/mL (≈ 0.215 µM) | 2 µg/mL (≈ 1.72 µM) | 2 µg/mL (≈ 1.72 µM) | 1 µg/mL (≈ 0.862 µM) | 0.5 µg/mL (≈ 0.431 µM) | 1 µg/mL (≈ 0.862 µM) | 1 µg/mL (≈ 0.862 µM) | 0.5 µg/mL (≈ 0.431 µM) | 1 µg/mL (≈ 0.862 µM) | 0.5 µg/mL (≈ 0.431 µM) |
| CC[C@@H]1NC(=O)[C@@H](CC(C)C)NC(=O)[C@H](CCN)NC(=O)[C@@H](NC(=O)[C@H](CN)NC(=O)[C@@H](NC(=O)[C@H](CCN)NC(=O)c2cnc(Cl)cc2Cl)[C@@H](C)O)CCNC(=O)[C@H]([C@@H](C)O)NC(=O)[C@H](CCN)NC(=O)[C@H](CCN)NC1=O [Compound 2] (X21-[Dab]T[Dap][Dab][Dab][dL][Abu][Dab][Dab]T; lactam 4-C) | 2 µg/mL (≈ 1.72 µM) | <0.125 µg/mL | 0.5 µg/mL (≈ 0.431 µM) | 0.5 µg/mL (≈ 0.431 µM) | 2 µg/mL (≈ 1.72 µM) | 8 µg/mL (≈ 6.89 µM) | 0.25 µg/mL (≈ 0.215 µM) | 0.5 µg/mL (≈ 0.431 µM) | 8 µg/mL (≈ 6.89 µM) | 1 µg/mL (≈ 0.861 µM) | 0.5 µg/mL (≈ 0.431 µM) | 2 µg/mL (≈ 1.72 µM) | 0.5 µg/mL (≈ 0.431 µM) |
| CC[C@@H]1NC(=O)[C@@H](CC(C)C)NC(=O)[C@H](CCN)NC(=O)[C@@H](NC(=O)[C@H](CN)NC(=O)[C@@H](NC(=O)[C@H](CCN)NC(=O)c2noc3ccccc23)[C@@H](C)O)CCNC(=O)[C@H]([C@@H](C)O)NC(=O)[C@H](CCN)NC(=O)[C@H](CCN)NC1=O [Compound 75] (X39-[Dab]T[Dap][Dab][Dab][dL][Abu][Dab][Dab]T; lactam 4-C) | 0.5 µg/mL (≈ 0.442 µM) | <0.125 µg/mL | 0.25 µg/mL (≈ 0.221 µM) | 0.5 µg/mL (≈ 0.442 µM) | 1 µg/mL (≈ 0.883 µM) | 1 µg/mL (≈ 0.883 µM) | <0.125 µg/mL | 0.25 µg/mL (≈ 0.221 µM) | 0.5 µg/mL (≈ 0.442 µM) | 1 µg/mL (≈ 0.883 µM) | 0.5 µg/mL (≈ 0.442 µM) | <0.125 µg/mL | 0.5 µg/mL (≈ 0.442 µM) |
| CC(C)C[C@H]1NC(=O)[C@H](CCN)NC(=O)[C@@H](NC(=O)[C@H](CN)NC(=O)[C@@H](NC(=O)[C@H](CCN)NC(=O)c2cc3ccccc3[nH]2)[C@@H](C)O)CCNC(=O)[C@H]([C@@H](C)O)NC(=O)[C@H](CCN)NC(=O)[C@H](CCN)NC(=O)[C@H]([C@@H](C)O)NC1=O [Compound 66] (X23-[Dab]T[Dap][Dab][Dab][dL]T[Dab][Dab]T; lactam 4-C) | 1 µg/mL (≈ 0.872 µM) | 0.5 µg/mL (≈ 0.436 µM) | 1 µg/mL (≈ 0.872 µM) | 0.25 µg/mL (≈ 0.218 µM) | 1 µg/mL (≈ 0.872 µM) | 2 µg/mL (≈ 1.74 µM) | 0.5 µg/mL (≈ 0.436 µM) | 0.5 µg/mL (≈ 0.436 µM) | 1 µg/mL (≈ 0.872 µM) | 2 µg/mL (≈ 1.74 µM) | 0.5 µg/mL (≈ 0.436 µM) | 0.5 µg/mL (≈ 0.436 µM) | 2 µg/mL (≈ 1.74 µM) |
